From patent US20070270393A1, “Methods and compositions for modulation of sleep cycle” (priority 2006, published 2007)

Assays:
[1] = tested on: HPA axis activity (cortisol, ACTH) and melatonin in chronic insomnia subjects; experiment: Overnight melatonin (dim light), cortisol and ACTH levels in the insomnia study; type: in vivo, human; conditions: after 5 days treatment in the outpatient setting, FIG. 3
[2] = one study, Kawai (1989); cited from earlier work
[3] = target: T1, progesterone receptors (Homo sapiens, UniProt P06401); conditions: literature; cited from earlier work
T1 sequence (P06401 1-933): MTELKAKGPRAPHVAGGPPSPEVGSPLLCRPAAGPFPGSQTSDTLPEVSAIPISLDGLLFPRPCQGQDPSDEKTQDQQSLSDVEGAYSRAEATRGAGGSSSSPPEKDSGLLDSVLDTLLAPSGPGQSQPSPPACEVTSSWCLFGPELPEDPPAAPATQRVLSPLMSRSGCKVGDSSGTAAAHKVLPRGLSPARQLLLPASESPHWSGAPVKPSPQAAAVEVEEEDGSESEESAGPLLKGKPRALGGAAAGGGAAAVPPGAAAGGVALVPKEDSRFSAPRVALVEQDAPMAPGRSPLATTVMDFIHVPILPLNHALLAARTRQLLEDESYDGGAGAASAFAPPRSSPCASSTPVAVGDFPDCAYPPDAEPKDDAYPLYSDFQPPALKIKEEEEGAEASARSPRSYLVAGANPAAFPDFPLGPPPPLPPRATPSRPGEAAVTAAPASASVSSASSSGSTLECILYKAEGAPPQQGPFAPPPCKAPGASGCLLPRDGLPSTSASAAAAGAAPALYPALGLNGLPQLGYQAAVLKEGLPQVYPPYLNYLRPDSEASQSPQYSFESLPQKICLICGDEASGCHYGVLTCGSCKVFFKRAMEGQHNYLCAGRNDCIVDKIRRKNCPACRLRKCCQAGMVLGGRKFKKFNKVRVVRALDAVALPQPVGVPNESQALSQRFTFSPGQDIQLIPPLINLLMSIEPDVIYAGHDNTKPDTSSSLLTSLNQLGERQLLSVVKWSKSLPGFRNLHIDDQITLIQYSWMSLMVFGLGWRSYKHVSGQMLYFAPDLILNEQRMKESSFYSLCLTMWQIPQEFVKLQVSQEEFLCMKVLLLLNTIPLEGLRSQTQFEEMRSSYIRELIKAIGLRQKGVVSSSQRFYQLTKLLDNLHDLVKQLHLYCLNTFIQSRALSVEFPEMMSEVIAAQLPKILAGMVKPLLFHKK

[4] = tested on: subjects with insomnia; experiment: Actigraphy measures of TST and WASO, outpatient portion of the insomnia study; type: in vivo, human; conditions: Tx (n = 2)
[5] = tested on: subjects with insomnia; experiment: Polysomnogram measures, double-blinded placebo controlled study of 5 days mifepristone in insomnia; type: in vivo, human; conditions: for % REM, average / % S1, average / % S2, average / % S3, average / % S4, average / Arousal, average / NUAW, average / Rem Lat, average / Rem density, average / S3 Lat, average / SE (S2, S3, S4), average / SE (S3, S4), average / SPT, average / TST, average / WASO, average: Rx Ave (n = 5)
[6] = tested on: healthy male; conditions: given in the afternoon, Wiedemann 1992; cited from earlier work
[7] = 2 Wk Post Tx rel to Baseline, Tx Delta
[8] = 2 Wk Post Tx rel to Baseline, Tx rel to Plac
[9] = Day 5 Tx rel to Baseline, Tx Delta
[10] = Day 5 Tx rel to Baseline, Tx rel to Plac

CC#C[C@]1(O)CC[C@H]2[C@@H]3CCC4=CC(=O)CCC4=C3[C@@H](c3ccc(N(C)C)cc3)C[C@@]21C [mifepristone, 17-beta-hydroxy-11-beta-(4-dimethyl-aminophenyl)-17-alpha-(1-propynyl)-estra-4,9-dien-3-one]
DLMO (time at which melatonin reaches 20 pg/ml) [1]: delay
excreted in the urine [2]: less than 0.5 % of the daily dose
antagonist of progesterone receptors [3]: powerful antagonist
D7AV-smin (actigraphy TST) ([4]; D7AV): 458.86 min
D7AV-waso (actigraphy WASO) ([4]; D7AV): 45.14
D20AV-smin (actigraphy TST) ([4]; D20AV): 448.40 min
D20AV-waso (actigraphy WASO) ([4]; D20AV): 51.70
D26AV-smin (actigraphy TST) ([4]; D26AV): 473.08 min
D26AV-waso (actigraphy WASO) ([4]; D26AV): 31.67
% REM (percentage REM sleep) [5, 7]: 1.63%
% S1 (percentage stage 1 sleep) [5, 7]: −39.19%
% S2 (percentage stage 2 sleep) [5, 7]: −2.68%
% S3 (percentage stage 3 sleep) [5, 7]: 1.09%
% S4 (percentage stage 4 sleep) [5, 7]: −1.48%
Arousal [5, 7]: 5.2
NUAW (number of awakenings) [5, 7]: 0
Rem Lat (minutes to first epoch of REM after sleep onset) [5, 7]: -4 min
Rem p [5, 7]: 1.972
S3 Lat (latency to onset of stage 3 sleep) [5, 7]: -0.85 min
SEB (S2, S3, S4) (total combined minutes of stage 2, 3 and 4 per total sleep minutes) [5, 7]: 2.57
SEC (S3, S4) (total combined minutes of stage 3, 4 per total sleep minutes) [5, 7]: 1.19
SPT [5, 7]: 28.1 min
TST (total combined minutes of sleep) [5, 7]: 38.5 min
WASO (wake after sleep onset) [5, 7]: -10.4 min
% REM (percentage REM sleep) [5, 8]: 1.31%
% S1 (percentage stage 1 sleep) [5, 8]: −0.01%
% S2 (percentage stage 2 sleep) [5, 8]: −5.05%
% S3 (percentage stage 3 sleep) [5, 8]: 1.45%
% S4 (percentage stage 4 sleep) [5, 8]: −0.98%
Arousal [5, 8]: −3.7
NUAW (number of awakenings) [5, 8]: 1.5
Rem Lat (minutes to first epoch of REM after sleep onset) [5, 8]: 39.5 min
Rem p [5, 8]: 2.73
S3 Lat (latency to onset of stage 3 sleep) [5, 8]: 23.1 min
SEB (S2, S3, S4) (total combined minutes of stage 2, 3 and 4 per total sleep minutes) [5, 8]: −1.34
SEC (S3, S4) (total combined minutes of stage 3, 4 per total sleep minutes) [5, 8]: 2.02
SPT [5, 8]: 29.55 min
TST (total combined minutes of sleep) [5, 8]: 21.65 min
WASO (wake after sleep onset) [5, 8]: 7.85 min
% REM (percentage REM sleep) [5, 9]: −9.33%
% S1 (percentage stage 1 sleep) [5, 9]: −38.34%
% S2 (percentage stage 2 sleep) [5, 9]: 6.44%
% S3 (percentage stage 3 sleep) [5, 9]: 0.76%
% S4 (percentage stage 4 sleep) [5, 9]: −0.01%
Arousal [5, 9]: 0.9
NUAW (number of awakenings) [5, 9]: 3.3
Rem Lat (minutes to first epoch of REM after sleep onset) [5, 9]: 61.15 min
Rem p [5, 9]: −0.826
S3 Lat (latency to onset of stage 3 sleep) [5, 9]: 7.05 min
SEB (S2, S3, S4) (total combined minutes of stage 2, 3 and 4 per total sleep minutes) [5, 9]: −2.13
SEC (S3, S4) (total combined minutes of stage 3, 4 per total sleep minutes) [5, 9]: −7.3
SPT [5, 9]: 28.69 min
TST (total combined minutes of sleep) [5, 9]: 17.05 min
WASO (wake after sleep onset) ([5]; Day 5 Tx rel to Baseline, Tx Delta, 600 mg/day in the morning, 5 days): 16.4 min
% REM (percentage REM sleep) [5, 10]: −9.69%
% S1 (percentage stage 1 sleep) [5, 10]: 1.76%
% S2 (percentage stage 2 sleep) [5, 10]: 3.9%
% S3 (percentage stage 3 sleep) [5, 10]: 0.71%
% S4 (percentage stage 4 sleep) [5, 10]: 0.42%
Arousal [5, 10]: −3.8
NUAW (number of awakenings) [5, 10]: 5
Rem Lat (minutes to first epoch of REM after sleep onset) [5, 10]: 99.6 min
Rem p [5, 10]: 0.654
S3 Lat (latency to onset of stage 3 sleep) [5, 10]: 19.35 min
SEB (S2, S3, S4) (total combined minutes of stage 2, 3 and 4 per total sleep minutes) [5, 10]: −6.85
SEC (S3, S4) (total combined minutes of stage 3, 4 per total sleep minutes) [5, 10]: −7.45
SPT [5, 10]: 29.39 min
TST (total combined minutes of sleep) [5, 10]: -3.75 min
WASO (wake after sleep onset) [5, 10]: 37.85 min
% REM, average ([5]; T2): 11.62%
% S1, average ([5]; T2): 15.48%
% S2, average ([5]; T2): 60.26%
% S3, average ([5]; T2): 7.63%
% S4, average ([5]; T2): 4.36%
Arousal, average ([5]; T2): 105.70
NUAW, average ([5]; T2): 27.60
Rem Lat, average ([5]; T2): 137.95 min
Rem density, average ([5]; T2): 7.16
S3 Lat, average ([5]; T2): 24.80 min
SE (S2, S3, S4), average ([5]; T2): 83.34
SE (S3, S4), average ([5]; T2): 24.94
SPT, average ([5]; T2): 469.24 min
TST, average ([5]; T2): 390.65 min
WASO, average ([5]; T2): 83.35 min
% REM, average ([5]; T3): 22.58%
% S1, average ([5]; T3): 14.63%
% S2, average ([5]; T3): 51.14%
% S3, average ([5]; T3): 7.96%
% S4, average ([5]; T3): 2.89%
Arousal, average ([5]; T3): 110.00
NUAW, average ([5]; T3): 24.30
Rem Lat, average ([5]; T3): 72.80 min
Rem density, average ([5]; T3): 9.95
S3 Lat, average ([5]; T3): 16.90 min
SE (S2, S3, S4), average ([5]; T3): 88.04
SE (S3, S4), average ([5]; T3): 33.43
SPT, average ([5]; T3): 468.65 min
TST, average ([5]; T3): 412.10 min
WASO, average ([5]; T3): 56.55 min
total sleep time (TST), in words ([5]; at 2 weeks post treatment): increased
REM latency (RL), in words ([5]; most acutely during active treatment): increased
effect on sleep [6]: significant worsening of sleep
